What is called IC50 is the concentration at which inhibition is half-maximal. Higher therefore signals lower potency.

The structures appear in SMILES notation. Square brackets hold non-standard residues; d marks the D form. Peptide text beside a SMILES is read from it. * marks the point of attachment. ξ: configuration not given here. Adenosine(5'-uronoyl) = Nc1ncnc2c1ncn2[C@@H]1O[C@H](C(=O)*)[C@@H](O)[C@H]1O; Biotin = O=C1N[C@H]2[C@H](CS[C@H]2CCCCC(=O)*)N1; NHCH2CH2OCH2CH2OMe = COCCOCCN*; NH(CH2)6NH2 = NCCCCCCN*; ξK = NCCCCC(N)C(=O)O; Ahx = NCCCCCC(=O)O

This test in a line: Inhibition of cAMP dependent Protein kinase A (PKA) catalytic subunit from bovine heart. Set-up: species or system Bos taurus.
The molecule `O=S(=O)(NCCNC/C=C/c1ccc(Br)cc1)c1cccc2cnccc12` displayed an IC50 of 135 nM. For `N=C(N)NCCC[C@H](NC(=O)[C@H](CCCNC(=N)N)NC(=O)[C@H](CCCNC(=N)N)NC(=O)[C@H](CCCNC(=N)N)NC(=O)[C@H](CCCNC(=N)N)NC(=O)[C@H](CCCNC(=N)N)NC(=O)CCCCCNC(=O)[C@H]1O[C@@H](n2cnc3c(N)ncnc32)[C@H](O)[C@@H]1O)C(=O)O`, half-maximal inhibition (IC50) was put at 700 nM. Regarding `NCCCCCCNC(=O)[C@H](CCCN=C(N)N)NC(=O)[C@H](CCCN=C(N)N)NC(=O)[C@H](CCCN=C(N)N)NC(=O)[C@H](CCCN=C(N)N)NC(=O)CCCCCNC(=O)[C@H]1O[C@@H](n2cnc3c(N)ncnc32)[C@H](O)[C@@H]1O` ({Adenosine(5'-uronoyl)-Ahx}-RRRR-{NH(CH2)6NH2}), the midpoint of inhibition, the IC50, lay at 680 nM. With `COCCOCCNC(=O)C(CCCCNC(=O)CCCC[C@@H]1SC[C@@H]2NC(=O)N[C@@H]21)NC(=O)[C@H](CCCN=C(N)N)NC(=O)[C@H](CCCN=C(N)N)NC(=O)[C@H](CCCN=C(N)N)NC(=O)[C@H](CCCN=C(N)N)NC(=O)CCCCCNC(=O)[C@H]1O[C@@H](n2cnc3c(N)ncnc32)[C@H](O)[C@@H]1O` (stereo not given in full) ({Adenosine(5'-uronoyl)-Ahx}-RRRR[ξK](Biotin)-NHCH2CH2OCH2CH2OMe), the IC50 amounted to 1200 nM.

The molecule `COCCOCCNC(=O)C(CCCCN)NC(=O)[C@H](CCCN=C(N)N)NC(=O)[C@H](CCCN=C(N)N)NC(=O)[C@H](CCCN=C(N)N)NC(=O)[C@H](CCCN=C(N)N)NC(=O)CCCCCNC(=O)[C@H]1O[C@@H](n2cnc3c(N)ncnc32)[C@H](O)[C@@H]1O` (stereo not given in full) ({Adenosine(5'-uronoyl)-Ahx}-RRRR[ξK]-NHCH2CH2OCH2CH2OMe) showed an IC50 of 460 nM. This IC50 is about 2.6-fold lower than that of the molecule before.

Source of the values: ChEMBL document CHEMBL1136203, “Liquid-phase synthesis of a pegylated adenosine-oligoarginine conjugate, cell-permeable inhibitor of cAMP-dependent protein kinase” (Bioorg Med Chem Lett, 2003).
